The test system of data set [1] is Mouse sperm. As to conditions: AMT+UV-treated sperm. The method, then:
(§1) Sperm Enucleation. A small piece of fresh Xenopus testis was macerated with forceps, resuspended in 1×MMR containing 1-50 μM AMT, then filtered through a […] cell strainer (Falcon). The sperm suspension was spread onto a Petri dish then irradiated as described above and used immediately to fertilize fresh eggs. Mouse epididymal sperm were isolated in HTF medium (Quinn, 2000) and not filtered before irradiation.
(§2) Eggs from super-ovulated mice were irradiated for 30 seconds with a handheld 4W UV lamp in the presence of 4-6 μM AMT, then parthenogenetically activated with strontium chloride and cultured in vitro for four days. […] In mouse embryos, however, checkpoints are active during the early cleavage divisions (Liu et al., 2000b; Takai et al., 2000).

Data set [2] has as its system Mouse eggs. Conditions: cultured four days. The method, then: as §2
In data set [3] the test system is Xenopus sperm. The method, then: as §1
Karyotype Analysis. Karyotype analysis was performed using a modified protocol (http:// followed “by faculty.virginia.edu/xtropicalis/KaryotypeXtropicalis.htm”). […] tailbud embryos were incubated in 0.1×MMR containing 10 μM nocodazole for 1-3 hours. The tailbud was bluntly dissected off with sharp needles, incubated in 60% acetic acid for 5 minutes, and squashed onto a Superfrost Plus microscope slide (V WR Scientific) under a coverslip and a lead brick. After 5 minutes, the slide was quick-frozen on a cake of dry ice, the coverslip was prized off with a razor blade, and the squashed tissue was stained with 0.1 μg/ml 4′,6-diamidino-2-phenylindole (DAPI). At least three high quality spreads were counted before assigning a karyotype.

For data set [4], the system named is Mouse J2 3T3 fibroblasts. As to conditions: 5 μM AMT and UV light 2 minutes. The method, then: (§3) Feeder Cell Enucleation. […] Cells were irradiated from above for 30-60 seconds with a 4 W UVGL-25 Mineralite (UVP) using the long-wave setting, holding the lamp as close as possible to the brim of the culture dish with the lid removed. After irradiation cells were washed with PBS. H7/WA07 hESCs (National Stem Cell Bank) were plated on primary MEFs 24 hours later. These MEFs were between passages 2 and 5. For keratinocytes precursor cell culture, the MEFS were trypsinized immediately after treatment and plated with CIN612 cells.
The human keratinocyte precursor cell line CIN612 is widely used in studies of human papillomavirus (HPV) (Ozbun, 2002). CIN612 cells harbor episomal copies of HPV31b, a subtype that causes cervical cancer. The cells are typically grown on a feeder layer of mouse fibroblasts. Mouse J2 3T3 fibroblasts were treated with 5 μM AMT and UV light for 2 minutes, then trypsinized and plated with CIN612 cells.

The test system of data set [5] is primary MEFs. The method, then: as §3
Human embryonic stem cells (hESCs) require a feeder layer of mouse embryonic fibroblasts (MEFs) to grow in culture (Thomson et al., 1998). […] The ability of MEFs to support hESC growth declines with time (VIIIa-Diaz et al., 2009).

The test system of data set [6] is Xenopus eggs. The experiment in a line: Enucleation of Xenopus eggs with psoralen and long-wave UV light, then fertilization. Type of data set: cell-based. As to conditions: for Chromosome Number (Mean ± SD): embryos from eggs treated with psoralen + long-wave UV before fertilization, diploid control 36.
Data set [7] deals with HeLa cells. The experiment in a line: Effect of psoralen+UV treatment on growth of HeLa cells.
The mark [8] stands for this setting: pigmented male sperm treated with AMT and UV, eggs from albino female.
[9] abbreviates: 5 μM MOP, long wave UV 1 minute, cultured three days.

Several values for one entry are separate records, joined by “and”; a condition that tells them apart may be missing. Equal entries are not always repeated. A value given as a limit tells only on which side of the number the result lay.

As to `Cc1oc2c(C)c3oc(=O)cc(C)c3cc2c1CN` [AMT, 4′-aminomethyl-4, 5′, 8-trimethylpsoralen], the “Cleavage of fertilized zygotes” value in data set [1] (20-40% with untreated sperm reached blastocyst) is “rarely cleaved even once”. The “Fertilization of mouse eggs in vitro by treated sperm” value in data set [1] (two pronuclei) was “successfully fertilized mouse eggs in vitro”. In addition, the “Development of parthenogenetically activated eggs” value in data set [2] (4-6 μM AMT, 30 seconds handheld 4W UV lamp) was “arrested development at the 1-2 cell stage”. Further, the “Development of eggs treated with AMT only” value in data set [2] (AMT without UV) is “formed complete blastocysts”. Moreover, the “Embryo outcome when both sperm and egg were treated” value in data set [3] (both sperm and egg AMT+UV-treated) was “underwent several irregular cleavage divisions before dying during the blastula stage”. Moreover, the “Chromosome Number (Mean ± SD)” value in data set [3] (embryos from eggs fertilized with AMT + UV-treated sperm, karyotype analysis) is 18 and 18.0 ± 0.0; in data set [6] (karyotype analysis), 18 and 18.0 ± 0.0. Besides, the Appearance of tadpoles entry in data set [3] (setting [8]) is given as “typical haploid appearance”; in data set [6] (eggs in 50 μM AMT 5 min, irradiated 5 min, 100 W UV 300-400 nm, then fertilized), “typical haploid appearance”. Also, in data set [3] (setting [8]), the Pigmentation of tadpoles result was “all were albino”. Besides, the “Effect on efficiency of fertilization” value in data set [3] (sperm treated with AMT and UV light) is reported as “no effect”. Further, the Efficiency of enucleation in data set [3] (sperm, AMT + UV) worked out at 95±3%. For the same compound, the “Psoralen concentration sufficient to completely destroy the nucleus” value in data set [3] (sperm, with UV irradiation) was 1 µM. Also, the “Embryo outcome, AMT without UV exposure” value in data set [3] (unless fertilization performed in a darkroom under a safelight) is “sometimes gave rise to abnormal embryos”. Further, the “Growth rate of CIN612 cells on psoralen-treated feeders” value in data set [4] was “the same as on mitomycin-C treated feeders”. Moreover, the “CIN612 colonies compared with mitomycin C-treated feeders” value in data set [4] (3-7 days in culture) is “indistinguishable from those grown on mitomycin C-treated feeder cells”. In addition, the “Comparison of colonies with those on gamma-irradiated MEFs” value in data set [5] (5 μM AMT, long-wave UV 30 seconds) was “indistinguishable from those grown on gamma-irradiated MEFs”. In addition, the “Appearance of hESC colonies on treated MEFs” value in data set [5] (5 μM AMT, long-wave UV 30 seconds, H7/WA07 hESCs after 5 days) is listed as “healthy-appearing hESC colonies with smooth rounded borders”. For the same compound, the “Time after treatment within which plating maintains hESCs undifferentiated” value in data set [5] (AMT+UV-treated MEFs, noticeable decrease after 8 days) is reported as at most 6 days. Moreover, in data set [5] (on AMT+UV-treated MEFs), the “Oct3/4 expression of hESCs” value is recorded as “normal amounts”. In addition, the “Average efficiency of enucleation” value in data set [6] (20 different clutches of eggs from different mothers) was 87±11%. The “Embryo development, AMT-only treated eggs” value in data set [6] (AMT without UV) is “normal diploid embryos”. Also, the “DNA content of somatic cells versus cells from untreated eggs” value in data set [6] (AMT+UV-treated eggs, primary cultures from pools of 20 tadpoles, flow cytometry) was “exactly half”. The “Rates of fertilization and development into haploid tadpoles” value in data set [6] (after psoralen+UV treatment of eggs) is 80-100%. For the same compound, the “Outcome with shorter irradiation or lower concentrations” value in data set [6] (eggs irradiated for shorter periods or with lower concentrations of AMT) is reported as “abnormal embryos”. Also, in data set [6] (eggs of CMV-GFP(+) female treated with AMT and UV, fertilized with GFP(−) sperm, untreated 63%), the “Haploid embryos expressing GFP” value is recorded as “virtually none”. Besides, the “Concentration providing ideal enucleation conditions” value in data set [6] (irradiation of eggs for 2-5 minutes) was in the range of 25 to 50 µM. In addition, the “Chromosome number of most surviving abnormal embryos” value in data set [6] (shorter irradiation or lower AMT concentrations, karyotype analysis) is 32-34.

In the case of `COc1c2occc2cc2ccc(=O)oc12` [MOP, 8-methoxypsoralen], in data set [7] (setting [9]), the Cell viability is listed as 80-100% and the HeLa cell growth result is reported as “effectively arrested HeLa cell growth”. In data set [7] (MOP without UV), the “Chk1 phosphorylation, MOP without UV exposure” value is given as “little or no Chk1 phosphorylation” and the “Growth of cells incubated in MOP without UV exposure” value was “grew normally”. For the same compound, the “S345-phosphorylated Chk1” value in data set [7] (MOP+UV-arrested cells, immunoblotting) is given as “high levels”. The “Cell cycle distribution (flow cytometry)” value in data set [7] (MOP+UV-treated cells) is “arrested in S and G2/M phases of the cell cycle”. Moreover, in data set [7] (MOP+UV-treated, untreated doubling time close to 24 hours), the Proliferation in culture entry is reported as “did not proliferate”. Moreover, the “Chromosome Number (Mean ± SD)” value in data set [6] (karyotype analysis) is 18.0 ± 0.0.

The values are drawn from patent US20120052544A1, “E[…] CELLS WITH PSORALENS” (priority 2010, published 2012).
